What is called inhibition is the relative decrease from the control value, in per cent. One may read the % inhibition as the share of the control response that was lost under treatment.

The subject of the first assay is MCF-7 cells. As to the kind of experiment: MCF-7 cell growth inhibition assay. Type of assay: cell-based. The following applies: Homo sapiens, MCF7, 120 h, MCF-7 cells plated in presence of estradiol (1 nM), five days incubation, Presto Blue viability. As to the method:
MCF-7 Cell Growth Inhibition Assay
MCF-7 cells were plated in 96 well plate in the presence of estradiol (1 nM) and incubated overnight. After 24 hours test compound was added at various concentrations and incubated for five days. On the fifth day, cell viability was evaluated using Presto Blue Cell Viability Reagent. Percentage growth inhibition was calculated as follows: 100−[(O.D. of sample)*100/O.D. of vehicle control] wherein O.D. is optical density.
`CNC/C=C\c1ccc(C2Oc3ccc(O)cc3C(C)=C2c2cccc(O)c2)cc1` (stereo not shown) [Compound 1]: the inhibition at 1 µM stood at 64.1%.

Take `CC1=C(c2cccc(O)c2)C(c2ccc(/C=C\CN(C)C)cc2)Oc2ccc(O)cc21` (stereo not shown) [Compound 2]: the inhibition at 1 µM was found to be 62.2%. For `CCCCCCCCCCCCNC/C=C\c1ccc(C2Oc3ccc(O)cc3C(C)=C2c2cccc(O)c2)cc1` (stereo not shown) [Compound 3], the inhibition at 1 µM was 68.5%. On the same count and under the same terms, the same measure for `CCCCCCCCCCCCNC/C=C/c1ccc(C2Oc3ccc(O)cc3C(C)=C2c2cccc(O)c2)cc1` (stereo not shown) [Compound 4]: 56.2%; for `CC1=C(c2cccc(O)c2)C(c2ccc(/C=C\CNCCN(C)C)cc2)Oc2ccc(O)cc21` (stereo not shown) [Compound 6]: 55.5%. `CC1=C(c2cccc(O)c2)C(c2ccc(/C=C\CNCCCCCCCCCSCCCC(F)(F)C(F)(F)F)cc2)Oc2ccc(O)cc21` (stereo not shown) [Compound 7, 3-(3-hydroxyphenyl)-4-methyl-2-(4-{(Z)-3-[9-(4,4,5,5,5-pentafluoropentylsulfanyl)nonylamino]propenyl}phenyl)-2H-chromen-6-ol]: the inhibition at 1 µM stood at 85.3%. Consider `CC1=C(c2cccc(O)c2)C(c2ccc(/C=C/CNCCCCCCCCCSCCCC(F)(F)C(F)(F)F)cc2)Oc2ccc(O)cc21` (stereo not shown) [Compound 8], for which the inhibition at 1 µM was determined as 59.1%. For the molecule `CC1=C(c2cccc(O)c2)C(c2ccc(/C=C\CN3CC[C@@H](C)C3)cc2)Oc2ccc(O)cc21` (stereo partly shown) [Compound 9], the inhibition at 1 µM came to 79.8%.

As to `CC1=C(c2cccc(O)c2)C(c2ccc(/C=C/CN3CC[C@@H](C)C3)cc2)Oc2ccc(O)cc21` (stereo partly shown) [Compound 10], the inhibition at 1 µM amounted to 52.3%.

Take `CC1=C(c2cccc(O)c2)C(c2ccc(/C=C\CN3CCCCC3)cc2)Oc2ccc(O)cc21` (stereo not shown) [Compound 11, 3-(3-hydroxyphenyl)-4-methyl-2-[4-((Z)-3-piperidin-1-ylpropenyl)phenyl]-2H-chromen-6-ol]: the inhibition at 1 µM was found to be 65.1%. As for `CC1=C(c2cccc(O)c2)C(c2ccc(/C=C/CN3CCCCC3)cc2)Oc2ccc(O)cc21` (stereo not shown) [Compound 12, 3-(3-hydroxyphenyl)-4-methyl-2-[4-((E)-3-piperidin-1-ylpropenyl)phenyl]-2H-chromen-6-ol], the inhibition at 1 µM is 57.6%. For the molecule `CC1=C(c2cccc(O)c2)C(c2ccc(/C=C\CN3CCOCC3)cc2)Oc2ccc(O)cc21` (stereo not shown) [Compound 13], the inhibition at 1 µM amounted to 5.5%. For `CC1=C(c2cccc(O)c2)C(c2ccc(/C=C\CN3CCN(C)CC3)cc2)Oc2ccc(O)cc21` (stereo not shown) [Compound 14], the inhibition at 1 µM was determined as 79.1%. As for `CC1=C(c2cccc(O)c2)C(c2ccc(/C=C/CN3CCN(C)CC3)cc2)Oc2ccc(O)cc21` (stereo not shown) [Compound 15], the inhibition at 1 µM turned out to be 52.2%.

In the case of `CC1=C(c2cccc(O)c2)C(c2ccc(/C=C\CN3CCC[C@@H](N)C3)cc2)Oc2ccc(O)cc21` (stereo partly shown) [Compound 16], the inhibition at 1 µM was 56.7%. As for `CC1=C(c2cccc(O)c2)C(c2ccc(/C=C\CN3CCN(CCO)CC3)cc2)Oc2ccc(O)cc21` (stereo not shown) [Compound 17], the inhibition at 1 µM is 43.4%. As for `CC1=C(c2cccc(OC(=O)C(C)(C)C)c2)C(c2ccc(/C=C\CN3CC[C@@H](C)C3)cc2)Oc2ccc(OC(=O)C(C)(C)C)cc21` (stereo partly drawn) [Compound 19, 2,2-Dimethylpropionic Acid 3-[3-(2,2-dimethylpropionyloxy)phenyl]-4-methyl-2-{4-[(Z)-3-((R)-3-methylpyrrolidin-1-yl)propenyl]phenyl}-2H-chromen-6-yl ester], the inhibition at 1 µM was 29.4%.

`COc1cccc(C2=C(C)c3cc(OC)ccc3OC2c2ccc(/C=C\CN3CC[C@@H](C)C3)cc2)c1` (stereo partly drawn) [Compound 20, (R)-1-((Z)-3-{4-[6-methoxy-3-(3-methoxyphenyl)-4-methyl-2H-chromen-2-yl]phenyl}allyl)-3-methylpyrrolidine]: the inhibition at 1 µM was found to be 15.4%. As for `CNCC#Cc1ccc(C2Oc3ccc(O)cc3C(C)=C2c2cccc(O)c2)cc1` (stereo not shown) [Compound 21], the inhibition at 1 µM is 60.1%.

On to `CCCCCCCCCCCCNCC#Cc1ccc(C2Oc3ccc(O)cc3C(C)=C2c2cccc(O)c2)cc1` (stereo not shown) [Compound 22], for which the inhibition at 1 µM amounted to 29%.

In the case of `CNC/C(C)=C/CCC=C(C)C` [Compound 23], the inhibition at 1 µM amounted to 36.8%. For the molecule `CC1=C(c2cccc(O)c2)C(c2ccc(C#CCN3CC[C@@H](C)C3)cc2)Oc2ccc(O)cc21` (stereo partly shown) [Compound 24], the inhibition at 1 µM came to 62.5%. Consider `CC1=C(c2cccc(O)c2)C(c2ccc(C#CCN3CCCCC3)cc2)Oc2ccc(O)cc21` (stereo not shown) [Compound 25, 3-(3-hydroxyphenyl)-4-methyl-2-[4-(3-piperidin-1-yl-prop-1-ynyl)phenyl]-2H-chromen-6-ol], for which the inhibition at 1 µM was found to be 42.5%.

As for `CC1=C(c2cccc(O)c2)C(c2ccc(C#CCN3CCN(C)CC3)cc2)Oc2ccc(O)cc21` (stereo not shown) [Compound 26], the inhibition at 1 µM was 55.2%. Regarding `CC1=C(c2cccc(O)c2)C(c2ccc(C#CCCN3CCN(C)CC3)cc2)Oc2ccc(O)cc21` (stereo not shown) [Compound 27], the inhibition at 1 µM turned out to be 28.8%.

`CCCNC1CCN(C)C1` (stereo not shown) [Compound 31]: the inhibition at 1 µM came to 19.9%. As to `CC1=C(c2cccc(O)c2)C(c2ccc(/C=C/CN3CCSCC3)cc2)Oc2ccc(O)cc21` (stereo not shown) [Compound 33], the inhibition at 1 µM amounted to 22.8%. The same measure, in the same setting: the same measure for `CC1=C(c2cccc(O)c2)C(c2ccc(/C=C\CN3CCC(C)CC3)cc2)Oc2ccc(O)cc21` (stereo not shown) [Compound 34]: 35%; for `CCCCCCCCCNC/C=C/c1ccc(C2Oc3ccc(O)cc3C(C)=C2c2cccc(O)c2)cc1` (stereo not shown) [Compound 35]: 68.6%; for `CC1=C(c2cccc(O)c2)C(c2ccc(/C=C\CNCCCCCCCCCF)cc2)Oc2ccc(O)cc21` (stereo not shown) [Compound 38]: 49.9%. With `CC1=C(c2cccc(O)c2)C(c2ccc(/C=C/CNCCCCCCCCCF)cc2)Oc2ccc(O)cc21` (stereo not shown) [Compound 39, 2-{4-[(E)-3-(9-Fluorononylamino)propenyl]phenyl}-3-(3-hydroxyphenyl)-4-methyl-2H-chromen-6-ol], the inhibition at 1 µM amounted to 89.7%. With `CC1=C(c2cccc(O)c2)C(c2ccc(/C=C\C(C)N3CCCC3)cc2)Oc2ccc(O)cc21` (stereo not shown) [Compound 40], the inhibition at 1 µM worked out at 29.3%. Regarding `CC1=C(c2cccc(O)c2)C(c2ccc(/C=C/CNCCCCCCCCCCF)cc2)Oc2ccc(O)cc21` (stereo not shown) [Compound 41], the inhibition at 1 µM worked out at 77.6%.

`CC1=C(c2cccc(O)c2)C(c2ccc(C#CCNCCCCCCCCCF)cc2)Oc2ccc(O)cc21` (stereo not shown) [Compound 42]: the inhibition at 1 µM came to 62%. As to `CC1=C(c2cccc(O)c2)C(c2ccc(/C=C\CNCCCCCCCCCCF)cc2)Oc2ccc(O)cc21` (stereo not shown) [Compound 43], the inhibition at 1 µM was determined as 47.9%.

`CC1=C(c2cccc(O)c2)C(c2ccc(/C=C/CNCCCCCCCCC(F)F)cc2)Oc2ccc(O)cc21` (stereo not shown) [Compound 44]: the inhibition at 1 µM was 67.2%.

Still in this assay, the particulars now being: at 1 μM; MCF-7 cells plated in presence of estradiol (1 nM), five days incubation, Presto Blue viability.
On to “3-(3-Methoxy phenyl)-4-methyl-2-{4-[(Z)-3-((R)-3-methyl pyrrolidin-1-yl)propenyl]phenyl}-2H-chromen-6-ol [Compound 28]”, for which the “% inhibition” value was 55.9%. With `CCCNC1CCN(C)C1` (stereo not shown) [Compound 32], the “% inhibition” value is on record as 27.4%.

In the case of `CCCCCCCCCNC/C=C\c1ccc(C2Oc3ccc(O)cc3C(C)=C2c2cccc(O)c2)cc1` (stereo not shown) [Compound 37], the “% inhibition” value was determined as 57.2%. Regarding `CC1=C(c2cccc(O)c2)C(c2ccc(/C=C/CN(C)CCCCCCCCCF)cc2)Oc2ccc(O)cc21` (stereo not shown) [Compound 45], the “% inhibition” value is recorded as 71.4%.
